Measurements taken from patent US20250197368A1 (priority 2020, published 2025).

Columns and labels:
human α2β3γ2 GABAARs = assay: In vitro electrophysiological recording assay (automated patch-clamp), α2-GABAAR relative efficacy; assay type: cell-based; settings: % efficacy normalised to diazepam; GABA EC10-20; concentration generally >= 100 times Ki
Protocol: The efficacy of modulators was evaluated using the automated patch-clamp platforms QPatch16 (Sophion, Copenhagen, Denmark) or SyncroPatch 384PE (Nanion, Germany).
For QPatch electrophysiology testing L(tk^−) cells stably expressing human α1β3γ2, α2β3γ2, α3β3γ2, α5β3γ2 GABAARs were used. HEK293 cells stably expressing human α1β3γ2L, α2β3γ2L, α3β3γ2L and α5β3γ2L GABAARs were used for the SyncroPatch 384PE experiments.
All experiments were carried out at room temperature (20-22° C.) using a standard whole cell procedure and physiological solutions. Gigaseals were formed upon execution of a combined suction/voltage protocol with subsequent increased suction leading to the whole-cell configuration.
The currents recorded were acquired at either 1 KHz or 2 KHz and filtered using a Bessel filter. Whole-cell currents were measured at a holding potential of-65 mV (QPatch) or −80 mV (SyncroPatch).
For QPatch experiments, the extracellular solution contained of: 145 mM NaCl, 4 mM KCl, 1 mM MgCl2, 2 mM CaCl2), 10 mM HEPES, 10 mM D-glucose (pH 7.4), and the intracellular solution consisted of: 96 mM KCl, 28 mM CsCl, 25 mM KOH, 4.3 mM CaCl2), 1.4 mM MgCl2, 10 mM EGTA, 10 mM HEPES, 3 mM MgATP (pH 7.2). The osmolarities of the extracellular and intracellular solutions were 305 and 295 mOsm respectively.
For SyncroPatch experiments, the extracellular recording solution contained: 140 mM NaCl, 4 mM KCl, 2 mM CaCl2), 1 mM MgCl2, 10 mM HEPES, 5 mM glucose (pH 7.4 with NaOH and osmolarity of c. 300-310 mOsm). The intracellular recording solution consisted of: 90 mM KCl, 50 mM KF, 1.5 mM MgCl2, 11.1 mM EGTA and 10 mM HEPES (pH 7.2 with KOH and osmolarity of c. 300 mOsm). 2 mM of NaATP was added to the intracellular solution on the day of testing.
The effects of modulators were evaluated in the presence of a submaximal GABA concentration, giving typically less than 30% activation of the response elicited by a saturating GABA concentration. To check and ensure baseline current stability before compound addition, two to five consecutive applications of GABA EC10-20 separated by wash steps were performed before compound addition. The test compound was applied 1 min at least prior to co-application with GABA EC10-20. Following a further wash step, a saturating concentration of GABA was applied at the end of each recording, allowing the accurate evaluation for each cell of the percentage baseline activation elicited by the submaximal GABA applied.
The compounds were first dissolved in DMSO as a 10 mM stock and then further diluted to the testing concentrations so that the final DMSO concentration in the extracellular recording solution was 0.1% (QPatch) or 0.2% (SyncroPatch).
The % efficacy of modulators was determined from the GABA elicited currents recorded in the presence and absence of the test compound, using the formula:
[((compound peak current−leak)−(GABA peak current-leak))/(GABA peak current−leak)]*100,
where ‘leak’ is the leak baseline current at the holding potential, ‘compound peak current’ is the current elicited by co-application of compound and GABA, and ‘GABA peak current’ is the current elicited by GABA alone at the last GABA application before compound addition. The results were presented as ‘relative efficacy’ for each compound generally at a concentration equal or higher than 100 times their determined Ki. The relative efficacy of a compound was calculated by normalising its % efficacy to the corresponding % efficacy of diazepam that was separately determined.

[1] = molecular target: human α2β3γ2 GABAARs (benzodiazepine site) (Homo sapiens (Human), UniProt P18507+P47869); assay: In vitro radioligand binding assay ([3H]Ro15-1788 displacement), α2-GABAAR Ki
Chain of human α2β3γ2 GABAARs (benzodiazepine site) (P47869 29-451): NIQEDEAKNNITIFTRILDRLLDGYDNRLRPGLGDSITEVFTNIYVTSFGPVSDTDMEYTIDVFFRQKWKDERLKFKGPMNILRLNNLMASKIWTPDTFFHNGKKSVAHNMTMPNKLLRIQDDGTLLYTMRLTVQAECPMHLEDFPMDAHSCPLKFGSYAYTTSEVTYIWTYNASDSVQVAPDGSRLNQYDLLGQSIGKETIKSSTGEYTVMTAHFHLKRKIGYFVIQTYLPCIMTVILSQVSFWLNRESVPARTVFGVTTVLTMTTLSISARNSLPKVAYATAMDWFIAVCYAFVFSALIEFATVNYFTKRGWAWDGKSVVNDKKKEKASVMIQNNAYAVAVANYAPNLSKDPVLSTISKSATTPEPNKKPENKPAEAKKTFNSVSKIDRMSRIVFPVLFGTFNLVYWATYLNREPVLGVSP
Chain of human α2β3γ2 GABAARs (benzodiazepine site) (P28472 26-473 partner): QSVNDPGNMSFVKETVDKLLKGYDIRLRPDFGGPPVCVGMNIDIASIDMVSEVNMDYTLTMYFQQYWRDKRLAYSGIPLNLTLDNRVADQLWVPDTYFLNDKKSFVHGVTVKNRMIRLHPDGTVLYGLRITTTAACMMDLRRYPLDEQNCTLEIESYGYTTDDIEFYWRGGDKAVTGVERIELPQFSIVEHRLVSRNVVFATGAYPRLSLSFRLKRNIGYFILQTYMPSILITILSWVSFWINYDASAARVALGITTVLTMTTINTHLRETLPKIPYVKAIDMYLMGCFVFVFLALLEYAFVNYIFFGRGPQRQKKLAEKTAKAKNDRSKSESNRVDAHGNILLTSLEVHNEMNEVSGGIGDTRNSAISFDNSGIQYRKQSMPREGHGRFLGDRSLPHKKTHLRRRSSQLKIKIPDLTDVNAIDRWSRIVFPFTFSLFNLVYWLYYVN
Chain of human α2β3γ2 GABAARs (benzodiazepine site) (P18507 40-475): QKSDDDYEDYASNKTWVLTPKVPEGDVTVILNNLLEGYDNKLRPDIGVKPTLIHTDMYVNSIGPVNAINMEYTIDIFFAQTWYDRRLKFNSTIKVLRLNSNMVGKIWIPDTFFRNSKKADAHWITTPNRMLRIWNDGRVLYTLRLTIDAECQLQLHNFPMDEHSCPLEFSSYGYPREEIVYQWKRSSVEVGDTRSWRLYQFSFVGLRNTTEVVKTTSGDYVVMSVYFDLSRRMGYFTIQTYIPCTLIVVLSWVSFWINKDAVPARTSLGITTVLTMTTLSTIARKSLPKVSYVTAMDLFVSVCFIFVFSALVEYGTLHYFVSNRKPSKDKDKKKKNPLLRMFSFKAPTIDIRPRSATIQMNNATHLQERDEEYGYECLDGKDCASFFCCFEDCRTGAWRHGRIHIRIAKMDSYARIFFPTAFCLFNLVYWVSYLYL
Protocol: The affinity (Ki) of compounds for the benzodiazepine site of human recombinant GABAARs was measured by their ability to inhibit the binding of the selective benzodiazepine antagonist [^3H]Ro15-1788 ([^3H] flumazenil).
Mouse L(tk^−) cells stably expressing human α1β3γ2, α2β3γ2, α3β3γ2, α5β3γ2 GABAARs were generated by transfection of the individual subunits in the dexamethasone-inducible expression vector pMSGneo in mouse L(tk^−) cells (Hadingham et al., 1993, Mol. Pharmacol. 43:970-975 and 1993, Mol. Pharmacol. 44:1211-1218).
L(tk^−) cells stably expressing human α1β3γ2, α2β3γ2, α3β3γ2, α5β3γ2 GABAARs were maintained in DMEM F12 medium supplemented with 10% Foetal Bovine Serum, 1% Penicillin/Streptomycin and 1 mg/mL Geneticin G418 in an incubator at 37° C. with a humidified atmosphere with 5% CO2. Dexamethasone was added to the culture medium to induce GABAAR expression.
L(tk−) cells were harvested and membranes were prepared for each receptor combination in either TE buffer (10 mM Tris·CI/0.1 mM EDTA, pH 7.5) or phosphate buffer (K2PO4 10 mM, pH 7.0) (Hadingham et al. (1992) Proc. Natl. Acad. Sci. USA; 89 (14): 6378-82). Protein concentration, receptor expression and the Kd of [^3H]Ro15-1788 were determined before Ki value of the compounds were evaluated. For Kd evaluation, saturation binding curves were obtained by incubating membrane with various concentrations of [^3H]Ro15-1788 (82.5 Ci/mM), with nonspecific binding measured in the presence of 1-3 μM TP003.
For Ki evaluation, cell membranes were incubated with 4 nM [^3H]Ro15-1788 along with a range of concentrations of test compound. Nonspecific binding was determined using 1-3 μM TP003. All incubations were performed for 1 hour at 4° C. in assay buffer. The total assay volume was 0.5 mL, containing 40 μg/well α1β3γ2, 30 μg/well α2β3γ2, 40 μg/well α3β3γ2 and 30 μg/well for α5β3γ2 of membrane protein. Incubations were terminated by filtration and washing with ice cold Tris-HCl buffer (50 mM, pH=7.4) over Whatman GF/B filters and the radioactivity of the filters was measured using liquid scintillation counting.
The % inhibition of [^3H]Ro15-1788 binding was plotted as a function of compound concentration and the IC50 calculated. From the IC50, the affinity (Ki) was calculated using the method of Cheng and Prusoff using the Kd values obtained for [^3H]Ro15-1788.

Structure (SMILES)	α2-GABAAR Relative Efficacy (vs. Diazepam) (human α2β3γ2 GABAARs)	Ki [1]
CCCNC(=O)c1c(N)c2cccc(-c3cncc(C)n3)c2[nH]c1=O [Example 46, 4-Amino-8-(6-methylpyrazin-2-yl)-2-oxo-N-propyl-1,2-dihydroquinoline-3-carboxamide]	0.02	2.37 nM
CCCNC(=O)c1c(N)c2cccc(-c3cncc(OC)n3)c2[nH]c1=O [Example 47, 4-Amino-8-(6-methoxypyrazin-2-yl)-2-oxo-N-propyl-1,2-dihydroquinoline-3-carboxamide]	0.08	0.23 nM
CCCNC(=O)c1c(N)c2cccc(-c3cccc(OC)c3)c2[nH]c1=O [Example 48, 4-Amino-8-(3-methoxyphenyl)-2-oxo-N-propyl-1H-quinoline-3-carboxamide]	0.39	1.84 nM
CCCNC(=O)c1c(N)c2cccc(-c3cc(OC)ccc3F)c2[nH]c1=O [Example 49, 4-Amino-8-(2-fluoro-5-methoxy-phenyl)-2-oxo-N-propyl-1H-quinoline-3-carboxamide]	0.26	0.43 nM
CCCNC(=O)c1c(N)c2cccc(-c3c(F)cccc3F)c2[nH]c1=O [Example 50, 4-Amino-8-(2,6-difluorophenyl)-2-oxo-N-propyl-1H-quinoline-3-carboxamide]	0.34	0.21 nM
CCCNC(=O)c1c(N)c2cccc(-c3c(C)noc3C)c2[nH]c1=O [Example 54, 4-Amino-8-(3,5-dimethylisoxazol-4-yl)-2-oxo-N-propyl-1H-quinoline-3-carboxamide]	0.07	20 nM
CCNC(=O)c1c(N)c2cccc(-c3cnccc3OC)c2[nH]c1=O [Example 56, 4-Amino-N-ethyl-8-(4-methoxy-3-pyridyl)-2-oxo-1H-quinoline-3-carboxamide]	0.34	6.62 nM
COc1ccncc1-c1cccc2c(N)c(C(=O)NCC3CC3)c(=O)[nH]c12 [Example 59, 4-Amino-N-(cyclopropylmethyl)-8-(4-methoxy-3-pyridyl)-2-oxo-1H-quinoline-3-carboxamide]	0.27	2.01 nM
COc1ccncc1-c1cccc2c(N)c(C(=O)NCC(C)C)c(=O)[nH]c12 [Example 60, 4-Amino-N-isobutyl-8-(4-methoxy-3-pyridyl)-2-oxo-1H-quinoline-3-carboxamide]	0.65	15.4 nM
COCCNC(=O)c1c(N)c2cccc(-c3cnccc3OC)c2[nH]c1=O [Example 63, 4-Amino-N-(2-methoxyethyl)-8-(4-methoxy-3-pyridyl)-2-oxo-1H-quinoline-3-carboxamide]	0.65	24.5 nM
COc1ccncc1-c1cccc2c(N)c(C(=O)NCCO)c(=O)[nH]c12 [Example 64, 4-Amino-N-(2-hydroxyethyl)-8-(4-methoxy-3-pyridyl)-2-oxo-1H-quinoline-3-carboxamide]	0.34	84.6 nM
COc1ccncc1-c1cccc2c(N)c(C(=O)NCCCF)c(=O)[nH]c12 [Example 67, 4-Amino-N-(3-fluoropropyl)-8-(4-methoxy-3-pyridyl)-2-oxo-1H-quinoline-3-carboxamide]	0.54	3.74 nM
COc1ccncc1-c1cccc2c(N)c(C(=O)NCCC(F)F)c(=O)[nH]c12 [Example 68, 4-Amino-N-(3,3-difluoropropyl)-8-(4-methoxy-3-pyridyl)-2-oxo-1H-quinoline-3-carboxamide]	0.54	4.88 nM
Cc1nn(C)cc1-c1cccc2c(N)c(C(=O)NCCC(F)(F)F)c(=O)[nH]c12 [Example 73, 4-Amino-8-(1,3-dimethylpyrazol-4-yl)-2-oxo-N-(3,3,3-trifluoropropyl)-1H-quinoline-3-carboxamide]	0.48	3.08 nM
CCCNC(=O)c1c(N)c2cccc(-c3cccnc3OC)c2n(C)c1=O [Example 76, 4-Amino-8-(2-methoxy-3-pyridyl)-1-methyl-2-oxo-N-propyl-quinoline-3-carboxamide]	0.42	6.23 nM
COc1ccncc1-c1cccc2c(N)c(C(=O)NCC3CC3)c(=O)n(C)c12 [Example 78, 4-Amino-N-(cyclopropylmethyl)-8-(4-methoxy-3-pyridyl)-1-methyl-2-oxo-quinoline-3-carboxamide]	0.70	2.11 nM
COc1ccncc1-c1cccc2c(N)c(C(=O)NCC(C)C)c(=O)n(C)c12 [Example 79, 4-Amino-N-isobutyl-8-(4-methoxy-3-pyridyl)-1-methyl-2-oxo-quinoline-3-carboxamide]	0.81	2.51 nM
CCCNC(=O)c1c(N)c2cccc(-c3cn(C)nc3C)c2n(C)c1=O [Example 80, 4-Amino-8-(1,3-dimethylpyrazol-4-yl)-1-methyl-2-oxo-N-propyl-quinoline-3-carboxamide]	0.6	4.44 nM
Cc1nn(C)cc1-c1cccc2c(N)c(C(=O)NCC3CC3)c(=O)n(C)c12 [Example 81, 4-Amino-N-(cyclopropylmethyl)-8-(1,3-dimethylpyrazol-4-yl)-1-methyl-2-oxo-quinoline-3-carboxamide]	0.81	2.19 nM
Cc1nn(C)cc1-c1cccc2c(N)c(C(=O)NCC(C)C)c(=O)n(C)c12 [Example 82, 4-Amino-8-(1,3-dimethylpyrazol-4-yl)-N-isobutyl-1-methyl-2-oxo-quinoline-3-carboxamide]	0.31	6.66 nM
